We go through two compounds from publication PMC11674305, “Inhibition of Neural Crest Cell Migration by Strobilurin Fungicides and Other Mitochondrial Toxicants” (Cells, 2024).

Structures are written as SMILES.

Experiment [1] deals with neural crest cells (NCC). Briefly: Transwell migration assay (FBS chemoattractant, 6 h). Particulars: negative controls, 100 µM. It is filed as cell-based, human. On the procedure: Cells were seeded at a density of 50,000 cells/well (150,000 cells/cm^2) into the upper chamber (insert) of the 96-well transwell plates (pore size 8 μm, polycarbonate membrane, Corning, Glendale, AZ, USA). The cells were stimulated to migrate through the membrane by medium supplemented with 5% of the chemoattractant fetal bovine serum (FBS) (PAA Laboratories, Pasching, Austria) in the lower chamber (reservoir). For testing of migration inhibition upon compound treatment, compounds were used at a concentration of BMC10 (V) of prior cMINC testing. Three technical replicates per condition were used. As a control for “unstimulated” migration, medium without any chemoattractant was tested. As an endpoint specific control for “inhibited” migration, CytoD with a concentration of 200 nM was used. After 6 h incubation time, the medium was aspirated, and reservoirs were washed with DPBS. Afterwards, reservoirs were filled with EDTA dissociation solution (DPBS supplemented with 0.1% 0.5 M EDTA UltraPure pH 8.0 (Thermo Fisher Scientific, Waltham, MA, USA), and 0.18% NaCl) containing 0.25 μL/mL calcein-AM and incubated for 30 min at 37 °C. The plates were then centrifuged at 300× g for 5 min (1200 rpm, Heraeus Multifuge 1 S-R, ThermoScientific) to remove migrated cells from the membrane. The tray with 96 wells of permeable inserts was removed, and the receiver plate was measured in the spectrophotometer (TECAN, Männedorf, Switzerland) with an emission wavelength of 520 nm. After subtraction of the blank values, the number of migrated cells was normalized to that of cells stimulated with FBS.
To perform the experiments under mitochondria-dependent conditions, the cells were handled exactly in the same way, but the medium was adapted. The N2-S medium was adjusted, so that no glucose was present but galactose. The medium consisted of SILAC^TM Advanced DMEM/-F12 FLEX (Gibco/Fisher Scientific, Hampton, NH, USA), 15 μg/mL insulin, 400 μM GlutaMAX, 0.7 mM L-Arginine, 0.5 mM L-Lysine, 21.5 µM Phenol Red, 20 nM progesterone, 100 μM putrescine and 30 nM selenium, 92.5 μg/mL apotransferrin, 4.7 mg/mL galactose (18 mM). The cytokines 20 ng/mL EGF and 20 ng/mL FGF2 were always freshly added to each run.

Experiment [2] has as its system neural crest cells (NCC). Briefly: cMINC (UKN2) assay: circular migration of neural crest cells, with viability. The following applies: Pre-Screen 1, single concentration 1:1000 of stock, in most cases 100 μM. It is filed as cell-based, human. On the procedure: The research group initially developed the first version of the test in 2012 [40]. The test has been further improved and characterized. To perform the cMINC assay, NCCs were thawed in N2-S Medium and seeded on the day of migration-1 (DoM-1) on a 96-well polystyrene plate (Corning, Glendale, AZ, USA) around stoppers, to create a cell-free area of 2 mm diameter (Platypus Technologies, Madison, WI, USA). The cells were resuspended in N2-S Medium supplemented with […] of the cytokines EGF and FGF, and then counted and seeded around the stoppers at a density of 95,000 cells/cm^2. After 24 h, the stoppers were removed, and the medium was exchanged. The removal of the stoppers initiates migration of the NCCs into the cell-free area. For the treatment, the 5x-concentrated toxicant solution was added to the medium 24 h after stopper removal.
On day 2, cells were stained with 533 nM calcein-AM and 1 μg/mL H-33342 (both from Sigma, Steinheim, Germany) and observed using two different channels on the Cellomics ArrayScan VTI imaging microscope (Thermo Fisher, Pittsburgh, PA, USA) to assess viability and migration. For the migration, four pictures were taken in the region of interest (ROI) (5× magnification objective). Migration data were obtained using the software “Ringassay” (http://invitrotox.uni-konstanz.de/ (accessed on 3 November 2024)), which can estimate the previously cell-free area and count the number of H-33342 and calcein-AM double-positive cells. Cell viability was assessed by taking four pictures outside of the ROI with 10× magnification objective. Viable cells were defined as H-33342 and calcein-AM double-positive cells and calculated by an automatic algorithm of the ArrayScan VTI 700 Series software as described earlier. […] Each plate included wells for testing of negative (0.1% DMSO solvent) and positive controls (200 nM cytochalasin D) in addition to the wells for blinded samples. The data from control wells were used as acceptance criteria of the assay. […] Renormalization of the concentration–response curves was performed after a visual inspection that the two lowest test-concentration data points are in the no-effect range. The average response (relative to solvent control) of the lowest two test concentrations was calculated, and all other data points of the same curve were divided by this average value. The calculations of the benchmark concentrations 10 for viability (BMC10 (V)) and 25 for migration (BMC25 (M)) were performed with the online available BMC software (http://invitrotox.uni-konstanz.de/ (accessed on 4 November 2024)).

In the case of `O=C1O[C@H]([C@@H](O)CO)C(O)=C1O` [L-ascorbic acid, reference compound], the “effect on transwell migration” value in experiment [1] was “no inhibited migration was observed”. Further, the Migration in experiment [2] is given as 100 % of control.
For `O=C1NS(=O)(=O)c2ccccc21` [Saccharin sodium hydrate, reference compound] the same measures were “no inhibited migration was observed” and 103 % of control.
